According to US9850225B2, “Compounds useful as immunomodulators” (BRISTOL-MYERS SQUIBB COMPANY, priority 2014, dated 2017):

Each compound was assayed against PD-1/PD-L1 interaction (PD-1-Ig / PD-L1-His) (Homo sapiens (Human), UniProt Q9NZQ7) (assay: PD-1/PD-L1 Homogenous Time-Resolved Fluorescence (HTRF) binding assay). Details: PD-1/PD-L1 HTRF binding assay; numeric value; read-out: Range or IC50.
Summary of the method: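 HTRF detection used 1 nM europium-cryptate anti-Ig and 20 nM APC anti-His. Compounds first saw 10 nM PD-L1-His for 15 min, and 20 nM PD-1-Ig was then added for another 15 min. Buffer was dPBS plus 0.1% BSA and 0.05% Tween-20. All concentrations are final.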

Sequence of PD-1/PD-L1 interaction (PD-1-Ig / PD-L1-His) (Q9NZQ7 other isoform, or with tags, fused parts or gaps): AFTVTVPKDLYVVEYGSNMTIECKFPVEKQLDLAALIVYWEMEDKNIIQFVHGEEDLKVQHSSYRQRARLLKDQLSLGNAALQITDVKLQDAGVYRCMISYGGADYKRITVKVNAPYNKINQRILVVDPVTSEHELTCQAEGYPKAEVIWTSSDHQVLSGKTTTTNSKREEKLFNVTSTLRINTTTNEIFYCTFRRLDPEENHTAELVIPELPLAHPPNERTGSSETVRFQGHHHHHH

| SMILES | IC50 [nM] |
| --- | --- |
| CC(=O)NCCNCc1ccc(OCc2cccc(-c3ccccc3)c2C)cc1OCc1ccc(F)c(C)c1 [Example 1108, N-(2-((2-((4-fluoro-3-methylbenzyl)oxy)-4-((2-methyl-[1,1′-biphenyl]-3-yl)methoxy)benzyl)amino)ethyl)acetamide] | 624 |
| CC(=O)NCCNCc1ccc(OCc2cccc(-c3ccccc3)c2C)cc1OCc1cccc(NC(=O)OC(C)(C)C)c1 [Example 1119, tert-butyl (3-((2-(((2-acetamidoethyl)amino)methyl)-5-((2-methyl-[1,1′-biphenyl]-3-yl)methoxy)phenoxy)methyl)phenyl)carbamate] | 14200 |

Same assay, conditions: PD-1/PD-L1 HTRF binding assay; value given as range class; read-out: Range or IC50

| SMILES | IC50 [nM] |
| --- | --- |
| COc1cc(COc2cc(OCc3cccc(-c4ccccc4)c3C)ccc2CNCCNC(C)=O)cc(OC)c1 [Example 1107] | 100 to 20000 |
| CC(=O)NCCNCc1ccc(OCc2cccc(-c3ccccc3)c2C)cc1OCc1cc(Cl)ccc1F [Example 1109] | 100 to 20000 |
| CC(=O)NCCNCc1ccc(OCc2cccc(-c3ccccc3)c2C)cc1OCc1ccc(F)c(Cl)c1 [Example 1110, N-(2-((2-((3-chloro-4-fluorobenzyl)oxy)-4-((2-methyl-[1,1′-biphenyl]-3-yl)methoxy)benzyl)amino)ethyl)acetamide] | 100 to 20000 |
| CC(=O)NCCNCc1ccc(OCc2cccc(-c3ccccc3)c2C)cc1OCc1ccncc1 [Example 1111, N-(2-((4-((2-methyl-[1,1′-biphenyl]-3-yl)methoxy)-2-(pyridin-4-ylmethoxy)benzyl)amino)ethyl)acetamide] | 10 to 100 |
| CC(=O)NCCNCc1ccc(OCc2cccc(-c3ccccc3)c2C)cc1OCc1cccc(-n2cccc2)c1 [Example 1112, N-(2-((2-((3-(1H-pyrrol-1-yl)benzyl)oxy)-4-((2-methyl-[1,1′-biphenyl]-3-yl)methoxy)benzyl)amino)ethyl)acetamide] | 100 to 20000 |
| CC(=O)NCCNCc1ccc(OCc2cccc(-c3ccccc3)c2C)cc1OCc1cc(C)cc(F)c1 [Example 1113, N-(2-((2-((3-fluoro-5-methylbenzyl)oxy)-4-((2-methyl-[1,1′-biphenyl]-3-yl)methoxy)benzyl)amino)ethyl)acetamide] | 100 to 20000 |
| CC(=O)NCCNCc1ccc(OCc2cccc(-c3ccccc3)c2C)cc1OCc1ccc(F)c(C#N)c1 [Example 1114, N-(2-((2-((3-cyano-4-fluorobenzyl)oxy)-4-((2-methyl-[1,1′-biphenyl]-3-yl)methoxy)benzyl)amino)ethyl)acetamide] | 10 to 100 |
| CC(=O)NCCNCc1ccc(OCc2cccc(-c3ccccc3)c2C)cc1OCc1cccc(OC(F)F)c1 [Example 1116, N-(2-((2-((3-(difluoromethoxy)benzyl)oxy)-4-((2-methyl-[1,1′-biphenyl]-3-yl)methoxy)benzyl)amino)ethyl)acetamide] | 100 to 20000 |
| CC(=O)NCCNCc1ccc(OCc2cccc(-c3ccccc3)c2C)cc1OCc1cccnc1 [Example 1117, N-(2-((4-((2-methyl-[1,1′-biphenyl]-3-yl)methoxy)-2-(pyridin-3-ylmethoxy)benzyl)amino)ethyl)acetamide] | 10 to 100 |
| CC(=O)NCCNCc1ccc(OCc2cccc(-c3ccccc3)c2C)cc1OCc1nccc2ccccc12 [Example 1118, N-(2-((2-(isoquinolin-1-ylmethoxy)-4-((2-methyl-[1,1′-biphenyl]-3-yl)methoxy)benzyl)amino)ethyl)acetamide] | 100 to 20000 |
| CC(=O)NCCNCc1ccc(OCc2cccc(-c3ccccc3)c2C)cc1OC[C@@H]1CCC(=O)N1 [Example 1120, (S)—N-(2-((4-((2-methyl-[1,1′-biphenyl]-3-yl)methoxy)-2-((5-oxopyrrolidin-2-yl)methoxy)benzyl)amino)ethyl)acetamide] | 10 to 100 |
| Cc1c(COc2ccc(CNC[C@@H](O)CC(=O)O)c(OCc3cccc(C#N)c3)c2)cccc1-c1ccc2c(c1)OCCO2 [Example 1121, (S)-4-(2-(3-cyanobenzyloxy)-4-(3-(2,3-dihydrobenzo[b][1,4]dioxin-6-yl)-2-methylbenzyloxy)benzylamino)-3-hydroxybutanoic acid] | 0.6 to 10 |
| CC(=O)NCCNCc1ccc(OCc2cccc(-c3ccc4c(c3)OCCO4)c2C)cc1OCc1cc(C#N)ccn1 [Example 1130, N-(2-(2-((4-cyanopyridin-2-yl)methoxy)-4-(3-(2,3-dihydrobenzo[b][1,4]dioxin-6-yl)-2-methylbenzyloxy)benzylamino)ethyl)acetamide] | 10 to 100 |

Next, values leading:

| IC50 [nM] | SMILES |
| --- | --- |
| 0.6 to 10 | Cc1c(COc2ccc(CN[C@H](CO)C(=O)O)c(OCc3cccc(C#N)c3)c2)cccc1-c1ccc2c(c1)OCCO2 [Example 1122, (R)-2-(2-(3-cyanobenzyloxy)-4-(3-(2,3-dihydrobenzo[b][1,4]dioxin-6-yl)-2-methylbenzyloxy)benzylamino)-3-hydroxypropanoic acid] |
| 0.6 to 10 | Cc1c(COc2ccc(CN[C@@H](C(=O)O)[C@H](C)O)c(OCc3cccc(C#N)c3)c2)cccc1-c1ccc2c(c1)OCCO2 [Example 1123, (2R,3S)-2-((2-((3-cyanobenzyl)oxy)-4-((3-(2,3-dihydrobenzo[b][1,4]dioxin-6-yl)-2-methylbenzyl)oxy)benzyl)amino)-3-hydroxybutanoic acid] |
| 0.6 to 10 | Cc1c(COc2ccc(CNC(C)(CO)C(=O)O)c(OCc3cccc(C#N)c3)c2)cccc1-c1ccc2c(c1)OCCO2 (centres unmarked) [Example 1124, 2-((2-((3-cyanobenzyl)oxy)-4-((3-(2,3-dihydrobenzo[b][1,4]dioxin-6-yl)-2-methylbenzyl)oxy)benzyl)amino)-3-hydroxy-2-methylpropanoic acid] |
| 0.6 to 10 | Cc1c(COc2ccc(CN[C@@H](C(=O)O)[C@@H](C)O)c(OCc3cccc(C#N)c3)c2)cccc1-c1ccc2c(c1)OCCO2 [Example 1125, (2R,3R)-2-((2-((3-cyanobenzyl)oxy)-4-((3-(2,3-dihydrobenzo[b][1,4]dioxin-6-yl)-2-methylbenzyl)oxy)benzyl)amino)-3-hydroxybutanoic acid] |
| 0.6 to 10 | Cc1c(COc2ccc(CN[C@H](CO)CC(=O)O)c(OCc3cccc(C#N)c3)c2)cccc1-c1ccc2c(c1)OCCO2 [Example 1126, (S)-3-((2-((3-cyanobenzyl)oxy)-4-((3-(2,3-dihydrobenzo[b][1,4]dioxin-6-yl)-2-methylbenzyl)oxy)benzyl)amino)-4-hydroxybutanoic acid] |
| 0.6 to 10 | Cc1c(COc2ccc(CN[C@](C)(CO)C(=O)O)c(OCc3cccc(C#N)c3)c2)cccc1-c1ccc2c(c1)OCCO2 [Example 1127, (R)-2-((2-((3-cyanobenzyl)oxy)-4-((3-(2,3-dihydrobenzo[b][1,4]dioxin-6-yl)-2-methylbenzyl)oxy)benzyl)amino)-3-hydroxy-2-methylpropanoic acid] |
| 0.6 to 10 | Cc1c(COc2ccc(CN[C@@](C)(CO)C(=O)O)c(OCc3cccc(C#N)c3)c2)cccc1-c1ccc2c(c1)OCCO2 [Example 1128, (S)-2-((2-((3-cyanobenzyl)oxy)-4-((3-(2,3-dihydrobenzo[b][1,4]dioxin-6-yl)-2-methylbenzyl)oxy)benzyl)amino)-3-hydroxy-2-methylpropanoic acid] |
| 0.6 to 10 | Cc1c(COc2ccc(CN[C@@H](CO)CC(=O)O)c(OCc3cccc(C#N)c3)c2)cccc1-c1ccc2c(c1)OCCO2 [Example 1129, (R)-3-((2-((3-cyanobenzyl)oxy)-4-((3-(2,3-dihydrobenzo[b][1,4]dioxin-6-yl)-2-methylbenzyl)oxy)benzyl)amino)-4-hydroxybutanoic acid] |
